# Data: patent US20110190365A1, “Insecticidal 4-phenyl-1H-pyrazoles” (Bayer Crop Science AG, priority 2008, published 2011)
# Assay: log P by HPLC on a reversed-phase column (C18), EEC Directive 79/831 Annex V.A8
# Assay type: physicochemical
# Settings: HCOOH
# Description: The stated log P values were determined in accordance with EEC Directive 79/831 Annex V.A8 by HPLC (High Performance Liquid Chromatography) using a reversed-phase column (C18).
row,Compound,log P (HCOOH)
1,Cc1cc(-n2nc(C)c(-c3c(Cl)cccc3Cl)c2N)ccc1C(=O)NCc1ccccn1 [I-A-Q2-376],I-A-Q2-376: log P (HCOOH): 1.79
2,Nc1c(-c2cccc(Cl)c2)c(C(F)(F)F)nn1-c1ccc(C(=O)NC2CC2)cc1 [I-A-Q2-091],I-A-Q2-091: log P (HCOOH): 3.09
3,Cc1cc(-n2nc(C(F)(F)F)c(-c3cc(Cl)cc(Cl)c3)c2N)ccc1C(=O)NCc1ccc(Cl)nc1 [I-A-Q2-219],I-A-Q2-219: log P (HCOOH): 4.05
4,C#CCNC(=O)c1ccc(-n2nc(C(F)(F)F)c(-c3cc(Cl)cc(Cl)c3)c2N)cc1C [I-A-Q2-238],I-A-Q2-238: log P (HCOOH): 3.78
5,Nc1c(-c2ccccc2Cl)c(C(F)(F)F)nn1-c1ccc(C(=O)NCc2ncccn2)cc1 [I-A-Q2-080],I-A-Q2-080: log P (HCOOH): 2.38
6,Cc1cc(-n2nc(C(F)(F)F)c(-c3cc(Cl)cc(Cl)c3)c2N)ccc1C(=O)NCc1ccccc1F [I-A-Q2-112],I-A-Q2-112: log P (HCOOH): 4.34
7,Cc1cc(-n2nc(C(F)(F)F)c(-c3cc(Cl)cc(Cl)c3)c2N)ccc1C(=O)NC(c1ccc(N(C)C)cc1)C(F)(F)F (centres unmarked) [I-A-Q2-246],I-A-Q2-246: log P (HCOOH): 5.02
8,Cc1cc(-n2nc(C(F)(F)F)c(-c3ccc(F)c(Cl)c3)c2N)ccc1C(=O)NCc1ccccn1 [I-A-Q2-352],I-A-Q2-352: log P (HCOOH): 2.76
9,COC(=O)CNC(=O)c1ccc(-n2nc(C(F)(F)F)c(-c3cc(Cl)cc(Cl)c3)c2N)cc1C [I-A-Q2-030],I-A-Q2-030: log P (HCOOH): 3.68
10,Cc1cc(-n2nc(C)c(-c3cc(F)ccc3F)c2N)ccc1C(=O)NCC(F)(F)C(F)F [I-A-Q2-332],I-A-Q2-332: log P (HCOOH): 2.59
11,Cc1cc(-n2nc(C(F)(F)F)c(Br)c2N)ccc1C(=O)NCC(F)(F)C(F)F [XI-A-092],XI-A-092: log P (HCOOH): 3.03
12,Cc1cc(-n2nc(C(F)(F)F)c(-c3cc(F)cc(Cl)c3)c2N)ccc1C(=O)NCC(F)(F)C(F)F [I-A-Q2-301],I-A-Q2-301: log P (HCOOH): 3.75
13,Cc1cc(-n2nc(C(F)(F)F)c(-c3cc(Cl)cc(Cl)c3)c2N)ccc1C(=O)NCc1ncc[nH]1 [I-A-Q2-034],I-A-Q2-034: log P (HCOOH): 1.94
14,Cc1cc(-n2nc(C(F)(F)F)c(-c3ccccc3Br)c2N)ccc1C(=O)NCC(F)(F)C(F)F [I-A-Q2-423],I-A-Q2-423: log P (HCOOH): 3.55
15,Cc1cc(-n2nc(C(C)C)c(-c3ccc(Cl)cc3)c2N)ccc1C(=O)NCC(F)(F)C(F)F [I-A-Q2-338],I-A-Q2-338: log P (HCOOH): 3.65
16,COC(C)c1nn(-c2ccc(C(=O)NCC(F)(F)C(F)F)c(C)c2)c(N)c1-c1cc(Cl)cc(C(F)(F)F)c1 (centres unmarked) [I-A-Q2-291],I-A-Q2-291: log P (HCOOH): 3.84
17,CCOC(=O)c1ccc(-n2nc(C(F)(F)F)c(I)c2N)cc1 [XI-A-044],XI-A-044: log P (HCOOH): 3.66
18,Cc1cc(-n2nc(C(F)F)c(-c3ccc(Cl)cc3)c2N)ccc1C(=O)NCC(F)(F)C(F)F [I-A-Q2-320],I-A-Q2-320: log P (HCOOH): 3.23
19,Cc1cc(-n2nc(C(F)(F)F)c(-c3cccc(F)c3)c2N)ccc1C(=O)NCC(F)(F)C(F)F [I-A-Q2-311],I-A-Q2-311: log P (HCOOH): 3.27

row,Compound,log P (HCOOH)
1,C=CCNC(=O)c1ccc(-n2nc(C(F)(F)F)c(-c3cc(Cl)cc(Cl)c3)c2N)cc1 [I-A-Q2-144],I-A-Q2-144: log P (HCOOH): 3.93
2,Cc1cc(-n2nc(C(F)(F)F)c(-c3cc(Cl)cc(Cl)c3)c2N)ccc1C(=O)NC(CC(C)C)C(F)(F)F (centres unmarked) [I-A-Q2-198],I-A-Q2-198: log P (HCOOH): 5.40
3,Cc1cc(-n2nc(C(F)(F)Oc3ccc(Cl)c(Cl)c3)c(-c3cc(Cl)cc(C(F)(F)F)c3)c2N)ccc1C(=O)NCC(F)(F)C(F)F [I-A-Q2-300],I-A-Q2-300: log P (HCOOH): 5.40
4,Cc1cc(-n2nc(C(F)(F)F)c(-c3cc(Cl)cc(Cl)c3)c2N)ccc1C(=O)NC(C)C(F)(F)F (centres unmarked) [I-A-Q2-011],I-A-Q2-011: log P (HCOOH): 4.54
5,Cc1cc(-n2nc(C(F)(F)F)c(-c3cc(Cl)cc(Cl)c3)c2N)ccc1C(=O)N(C)C [I-A-Q2-056],I-A-Q2-056: log P (HCOOH): 3.93
6,Cc1cc(-n2nc(C(F)(F)F)c(-c3cc(Cl)cc(Cl)c3)c2N)ccc1C(=O)NC(C)c1ccc(Cl)nc1 (centres unmarked) [I-A-Q2-248],I-A-Q2-248: log P (HCOOH): 4.34
7,Cc1cc(-n2nc(C)c(-c3ccc(F)cc3F)c2N)ccc1C(=O)NCc1ccccn1 [I-A-Q2-370],I-A-Q2-370: log P (HCOOH): 1.64
8,Cc1cc(-n2nc(C(F)(F)F)c(-c3cc(Cl)cc(Cl)c3)c2N)ccc1C(=O)NC1(c2ccccn2)CC1 [I-A-Q2-244],I-A-Q2-244: log P (HCOOH): 3.68
9,Cc1cc(-n2nc(C(F)(F)F)c(-c3cc(Cl)cc(Cl)c3)c2N)ccc1C(=O)NCc1ccc(F)cn1 [I-A-Q2-039],I-A-Q2-039: log P (HCOOH): 3.94
10,Cc1cc(-n2nc(C(F)(F)F)c(-c3ccc(Cl)cc3Cl)c2N)ccc1C(=O)NCc1ccccn1 [I-A-Q2-348],I-A-Q2-348: log P (HCOOH): 2.84
11,Nc1c(-c2ccc(Br)cc2)c(C(F)(F)F)nn1-c1ccc(C(=O)NCC(F)(F)F)cc1 [I-A-Q2-189],I-A-Q2-189: log P (HCOOH): 3.53
12,Cc1cc(-n2nc(C(F)(F)F)c(-c3cc(Cl)cc(Cl)c3)c2N)ccc1C(=O)NCCOC(C(F)(F)F)C(F)(F)F [I-A-Q2-048],I-A-Q2-048: log P (HCOOH): 4.70
13,Cc1cc(-n2nc(C(F)(F)F)c(-c3cc(Cl)cc(Cl)c3)c2N)ccc1C(=O)NCC(=O)N1CCOCC1 [I-A-Q2-031],I-A-Q2-031: log P (HCOOH): 3.33
14,CC(C)(CC(F)(F)F)NC(=O)c1ccc(-n2nc(C(F)(F)F)c(-c3cc(Cl)cc(Cl)c3)c2N)nc1 [I-A-Q2-099],I-A-Q2-099: log P (HCOOH): 5.42
15,Cc1cc(-n2nc(C(F)(F)Oc3ccccc3Cl)c(-c3cc(Cl)cc(C(F)(F)F)c3)c2N)ccc1C(=O)NCC(F)(F)C(F)F [I-A-Q2-298],I-A-Q2-298: log P (HCOOH): 4.64
16,Cc1cc(-n2nc(C(F)(F)F)c(-c3cc(Cl)cc(Cl)c3)c2N)ccc1C(=O)NCC(F)(F)C(F)(F)C(F)(F)F [I-A-Q2-266],I-A-Q2-266: log P (HCOOH): 4.89
17,Cc1cc(-n2nc(C(F)(F)F)c(-c3cc(Cl)cc(Cl)c3)c2N)ccc1C(=O)NCC(C)C [I-A-Q2-227],I-A-Q2-227: log P (HCOOH): 4.40
18,Nc1c(-c2ccc(Cl)cc2)c(C(F)(F)F)nn1-c1ccc(C(=O)NCC(F)(F)F)cc1 [I-A-Q2-162],I-A-Q2-162: log P (HCOOH): 3.51

# Same assay, conditions: HCOOH; Table 4, compounds of formula I-A-Q4
row,Compound,log P (HCOOH)
1,CCS(=O)(=O)c1ccc(-n2nc(C(F)(F)F)c(-c3cc(Cl)cc(Cl)c3)c2N)c(F)c1 [I-A-Q4-019],I-A-Q4-019: log P (HCOOH): 3.94
2,Cc1ccccc1-c1c(C(F)(F)F)nn(-c2ccc(C(=O)O)cc2)c1N [I-A-Q4-101],I-A-Q4-101: log P (HCOOH): 2.94
3,Cc1nn(-c2ccc(Cl)cn2)c(N)c1-c1ccccc1Cl [I-A-Q4-032],I-A-Q4-032: log P (HCOOH): 3.89
4,Nc1c(-c2ccc(Cl)c(F)c2)c(C(F)(F)F)nn1-c1ccc(Cl)cn1 [I-A-Q4-048],I-A-Q4-048: log P (HCOOH): 5.02
5,Cc1nn(-c2ccc(Cl)cn2)c(N)c1-c1cc(Cl)ccc1Cl [I-A-Q4-030],I-A-Q4-030 :log P (HCOOH): 4.57
6,CCc1nn(-c2ccc(Cl)cn2)c(N)c1-c1ccc(Cl)cc1 [I-A-Q4-026],I-A-Q4-026: log P (HCOOH): 5.02
7,COC(=O)c1ccc(-n2nc(C(F)(F)F)c(-c3cc(Cl)cc(Cl)c3)c2N)cc1C(F)(F)F [I-A-Q4-112],I-A-Q4-112: log P (HCOOH): 5.21
8,Nc1c(-c2ccc(Br)cc2)c(C(F)(F)F)nn1-c1ccc(C(=O)O)cc1 [I-A-Q4-098],I-A-Q4-098: log P (HCOOH): 3.35
9,COC(=O)c1ccc(-n2nc(C(F)(F)F)c(-c3cc(Cl)cc(Cl)c3)c2N)cc1SC [I-A-Q4-118],I-A-Q4-118: log P (HCOOH): 4.93
10,N#Cc1ccc(-c2c(C(F)(F)F)nn(-c3ccc(Cl)cn3)c2N)cc1 [I-A-Q4-045],I-A-Q4-045: log P (HCOOH): 4.11
11,Nc1c(-c2ccccc2Cl)c(C(F)(F)F)nn1-c1ccc(Cl)cn1 [I-A-Q4-023],I-A-Q4-023: log P (HCOOH): 4.57

# Same assay, conditions: HCOOH; compounds of the formula (IX), Table 11
row,Compound,log P (HCOOH)
1,Nc1[nH]nc(C(F)(F)F)c1-c1ccc(F)c(F)c1 [IX-201],IX-201: log P (HCOOH): 2.33

# Same assay, conditions: HPLC, reversed-phase C18, mobile phase with formic acid
row,Compound,log P (HCOOH)
1,N#Cc1cc(-n2nc(C(F)(F)F)c(-c3ccc(Cl)c(F)c3)c2N)ccc1-n1cncn1 [I-A-Q1-032],I-A-Q1-032: log P (HCOOH): 3.28
2,N#Cc1cc(-n2nc(C(F)(F)F)c(-c3ccccc3Cl)c2N)ccc1-n1cncn1 [I-A-Q1-035],I-A-Q1-035: log P (HCOOH): 2.80
3,N#Cc1cc(-n2nc(C(F)(F)Oc3ccc(Cl)cc3)c(-c3cc(Cl)cc(C(F)(F)F)c3)c2N)ccc1-n1cncn1 [I-A-Q1-071],I-A-Q1-071: log P (HCOOH): 4.84
4,N#Cc1cc(-n2nc(C(F)(F)F)c(-c3cccc(Br)c3)c2N)ccc1-n1cncn1 [I-A-Q1-046],I-A-Q1-046: log P (HCOOH): 3.24
5,Cc1nc(C(F)(F)F)nn1-c1ccc(-n2nc(C(F)(F)F)c(-c3cc(Cl)cc(Cl)c3)c2N)cc1C#N [I-A-Q1-086],I-A-Q1-086: log P (HCOOH): 4.57
6,N#Cc1cc(-n2nc(C(F)(F)F)c(-c3cc(F)c(F)c(F)c3)c2N)ccc1-n1cncn1 [I-A-Q1-041],I-A-Q1-041: log P (HCOOH): 3.19

# Same assay, conditions: HPLC, reversed-phase C18, mobile phase with formic acid; read-out: log P (HCOOH)
row,Compound,chromatographic logP
1,"COC(=O)c1ccc(NN)cc1C [VII-A-008, Methyl 4-hydrazino-2-methylbenzoate]",0.4
